In patent US7718693B2, “Receptor antagonists and their methods of use” (Glaxo Group Limited, priority 2006, dated 2010):

Columns and labels:
Format in all cases: in vivo
Random Hooded rats [1] = assay: Rat Model of Neuropathic Pain (sciatic nerve ligatures, Von Frey mechanical allodynia); conditions: oral, twice daily for 8 days, 26-33 days post surgery
Excerpt: Rat Model of Neuropathic Pain
By placing loosely constrictive ligatures around the common sciatic nerve, a peripheral mononeuropathy can be produced, which thereby provides a rat model of neuropathic pain, Bennet et al., Pain, Vol. 33, pp 87-107 (1988). Adult male Random Hooded rats (180-200 g) from Charles River, UK were anaesthetised with isoflurane (3%). The sciatic nerve in the left leg was exposed at mid thigh level and 4 loose ligatures of Chromic 4.0 gut tied around the nerve as described by Bennet et al., Pain, Vol. 33, pp 87-107 (1988). The wound was closed and secured with staples. Sham rats underwent the same procedure but loose ligatures were not applied. The presence of mechanical (tactile) allodynia was assessed using manual application of Von Frey hair monofilaments. Monofilaments were applied in ascending order to the plantar region of the hind paw (range: 1.4 g-26 g). Each hair was applied for approx. 3-5 seconds until a paw withdrawal response was observed. After confirmation with reapplication of lower and/or higher hairs, the lowest hair to give a paw withdrawal was recorded as the threshold response (g). When stable allodynia was established rats were dosed orally 26-33 days post surgery with compound twice daily for 8 days with allodynia measurements recorded at least three times during the dosing period.

Random Hooded rats [2] = assay: Rat Model of Joint Pain (intra-articular FCA, weight bearing); conditions: oral; for ED50: FCA (i.art) weight bearing, read-out: ED50 obtained from Area Under the Curve (AUC) calculations; for reversal of FCA (i.art)-induced difference in weight bearing compared to vehicle response: twice daily for 5 days, normally 13-17 days post surgery
Experimental: By measuring hypersensitivity post intra-articular injection of FCA into the knee, the effectiveness of a potential analgesic in reversing FCA-induced hypersensitivity can be assessed in a joint pain model of chronic inflammatory pain. Adult male Random Hooded rats (150-180 g) from Charles River, UK were briefly anaesthetised with isoflurane (3%). Rats were then injected with 150 μl of Freund's complete adjuvant (FCA) into the left knee joint (intra-articularly, i.art). The ability to bear weight on each hindlimb (weight bearing, g) was measured prior to and following surgery using a Dual Channel Weight Averager (Linton Instruments). When a stable difference in weight bearing was established between the injected and contralateral paws, rats were typically dosed orally (normally 13-17 days post surgery) with compound twice daily for 5 days with weight bearing measurements recorded daily.

Random Hooded rats [3] = assay: Rat Model of Acute Inflammatory Pain (intraplantar FCA, weight bearing); conditions: oral; for reversal of FCA (i.pl)-induced difference in weight bearing compared to vehicle response: 24 hours after FCA injection; for ED50: FCA (i.pl) weight bearing, read-out: ED50 obtained from dose response curves
Experimental: Rat Model of Acute Inflammatory Pain
A useful animal model for acute inflammatory pain is the Freund's Complete Adjuvant (FCA)-induced inflammation model. A similar model using carrageenan rather than FCA is described by Clayton et al. in Br. J. Pharmacol. 1997; 120, 219P. Adult male Random Hooded rats (180-220 g) from Charles River, UK received an intraplantar (i.pl) injection of 100 μl of FCA into the plantar surface of the left hind paw. The ability to bear weight on each hindlimb (weight bearing g) was measured prior to and 24 hours after the FCA injection using a Dual Channel Weight Averager (Linton Instruments). After the post-FCA reading, rats were typically dosed orally with compound after which weight bearing measurements were recorded.

| Structure (SMILES) | reversal of CCl-induced mechanical allodynia compared to vehicle response (Random Hooded rats [1]) | ED50 (Random Hooded rats [2]) [mg/kg] | reversal of FCA (i.art)-induced difference in weight bearing compared to vehicle response (Random Hooded rats [2]) | reversal of FCA (i.pl)-induced difference in weight bearing compared to vehicle response (Random Hooded rats [3]) | ED50 (Random Hooded rats [3]) [mg/kg] |
| --- | --- | --- | --- | --- | --- |
| CN1C(=O)CC[C@H]1C(=O)NCc1ccc(Cl)cc1Cl [Example E10, N-[(2,4-dichlorophenyl)methyl]-1-methyl-5-oxo-prolinamide] | significantly reversed | < 20 | significantly reversed | significantly reversed | < 20 |
| CN1C(=O)CC[C@H]1C(=O)NCc1cccc(C(F)(F)F)c1Cl [Example E51, N-{[2-chloro-3-(trifluoromethyl)phenyl]methyl}-1-methyl-5-oxoprolinamide] | significantly reversed | < 20 | significantly reversed | significantly reversed | < 20 |
